In US20170216452A1, “ANTIBODIES AND ANTIBODY FRAGMENTS FOR SITE-SPECIFIC CONJUGATION” (Pfizer Inc., priority 2015, published 2017):
“Also recorded” adds a separate entry of the source. Like-named read-outs stand apart in the source and are kept apart here. Square brackets hold non-standard residues; d marks the D form. Peptide text beside a SMILES is read from it. * marks the point of attachment. Dolaproine = CO[C@@H]([C@@H]1CCCN1)[C@@H](C)C(=O)O; Dil = CC[C@H](C)[C@H](NC)[C@@H](CC(=O)O)OC; Doe = c1ccc(C[C@H](N*)c2nccs2)cc1; Aib = CC(C)(N)C(=O)O

How the values were obtained:
[1] = test system: N87-TM cells (N87-TM-1, N87-TM-2); assay: Cytotoxicity studies (MTS) on T-DM1 resistant N87-TM cells made in vitro; format: cell-based
Description: N87 cells were passaged into two separate flasks and each flask was treated identically with respect to the resistance-generation protocol to enable biological duplicates. […] The procedure was intended to simulate the chronic, multi-cycle (on/off) dosing at maximally tolerated doses typically used for cytotoxic therapeutics in the clinic, followed by a recovery period. […] Drug selection pressure was removed after ˜3-4 months of cycle treatments when the level of resistance no longer increased after continued drug exposure. […] Data were collected from various thawed cryopreserved populations derived from a single selection, over approximately 1-2 years after model development to ensure consistency in the results.
Cells were seeded in 96-well plates at low density, then treated the following day with ADCs and unconjugated payloads at 3-fold serial dilutions at 10 concentrations in duplicate. Cells were incubated for 4 days in a humidified 37° C./5% CO2 incubator. The plates were harvested by incubating with CellTiter® 96 AQueous One MTS Solution (Promega, Madison, Wis.) for 1.5 hours and absorbance measured on a Victor plate reader (Perkin-Elmer, Waltham, Mass.) at wavelength 490 nm. IC50 values were calculated using a four-parameter logistic model with XLfit (IDBS, Bridgewater, N.J.).

N87 parental cells = assay: Cytotoxicity studies (CellTiter Glo, 96 h) on parental N87 cells (Example 15); format: cell-based; conditions: read-out: sensitivity to free payload (IC50), N87
Description: (§1) Cells were incubated for 96 hours in a humidified 37° C./5% CO2 incubator.

[2] = test system: N87-T-DM1 cells (Mouse #7, #17, #2); assay: Cytotoxicity studies (CellTiter Glo, 96 h) on cells relapsed from T-DM1 treatment in vivo; format: cell-based; conditions: for IC50: Mus musculus; for sensitivity of T-DM1 resistant cells generated in vivo: N87-T-DM1 cells compared to parental
Description: as §1

[3] = test system: HT29 colon carcinoma cells (EDB+FN negative); assay: In vitro cytotoxicity of anti-EDB ADCs (Cell Titer Glo, 4 days); format: cell-based, human; conditions: four days, ng/ml of antibody
Description: Proliferating WI38-VA13 or HT29 cells were harvested from culture flasks with non-enzymatic cell dissociation buffer and cultured overnight in 96-well plates (Corning) at 1000 cells/well in a humidified chamber (37° C., 5% CO2). […] In some experiments, cells were plated at 1500 cells/well and treated the same day. […] On harvest day, 50 μl of Cell Titer Glo (Promega) was added to the cells and incubated 0.5 hours at room temperature. […] Relative cell viability was determined as a percentage of untreated control wells. IC50 values were calculated using four-parameter logistic model #203 with XLfit v4.2 (IDBS).

PDX-NSX-11122 = PDX-NSX-11122 NSCLC PDX model; format: in vivo, mouse
Text: (§2) To generate PDX models, tumors were collected from donor animals and tumor fragments approximately 3×3 mm were implanted subcutaneously into the flank of female athymic nude mice (for PDX-NSX-11122 model) or NOD SCID mice (for PDX-PAX-13565 and PDX-PAX-12534 models) by using a 10 gage trocar. When average tumor volume reached approximately 160 to 260 mm^3 the mice were randomized into treatment groups, with 7-10 mice in each group. ADCs or vehicle (PBS) dosing regime and administration route as well as tumor measurement procedures are the same as described above for CLX models.

H-1975 = H-1975 NSCLC CLX model; format: in vivo, mouse
Text: (§3) To generate CLX models, 8×10^6 to 10×10^6 cells of H-1975, HT29, or Ramos tumor lines were implanted into female athymic nude mice subcutaneously. Ramos and H-1975 cells for inoculation were suspended in 50% and 100% Matrigel (BD Biosciences), respectively. For the Ramos model, the animals received whole body irradiation (4 Gy) before cell inoculation to facilitate the establishment of tumors. When the average tumor volume reached approximately 160 to 320 mm^3, the animals were randomized into treatment groups, with 8-10 mice in each group. ADCs or vehicle (PBS) were administered intravenously on day 0 and then the animals were dosed once every 4 days for 4 to 8 doses. Tumors were measured once or twice weekly and tumor volume was calculated as volume (mm^3)=(width×width×length)/2.

HT29 = HT29 colon CLX model; format: in vivo, mouse; conditions: 3 mg/kg
Text: as §3

PDX-PAX-13565 = PDX-PAX-13565 pancreatic PDX model; format: in vivo, mouse; conditions: 0.3, 1 and 3 mg/kg
Text: as §2

PDX-PAX-12534 = PDX-PAX-12534 pancreatic PDX model; format: in vivo, mouse; conditions: 0.3, 1 and 3 mg/kg
Text: as §2

Ramos = Ramos lymphoma CLX model; format: in vivo, mouse; conditions: 3 mg/kg
Text: as §3

N87 gastric xenografts = assay: N87 gastric xenograft model; format: in vivo, mouse; conditions: IV Q4d×4
Description: (§4) For each model described below the first dose was given on Day 1. The tumors were measured at least once a week and their volume was calculated with the formula: tumor volume (mm^3)=0.5×(tumor width^2)(tumor length). The mean tumor volumes (±S. E. M.) for each treatment group were calculated having a maximum of 8-10 animals and a minimum of 6-8 animals to be included.
When the tumors reached a volume of 250 to 450 mm^3, the tumors were staged to ensure uniformity of the tumor mass among various treatment groups.

[4] = test system: N87 cell line xenograft tumors; assay: Bystander effect, immunohistocytochemistry (pHH3, human IgG) of N87 xenograft tumors; format: in vivo, mouse; conditions: single dose T-DM1 6 mg/kg or T-vc0101 3 mg/kg, tumors harvested 96 hours later
Description: Tumor sections were stained for human IgG to detect ADC bound to tumor cells and phosphhistone H3 (pHH3) to detect mitotic cells as readout of the proposed mechanism of action for the payloads of both ADCs.

N87 tumors = assay: In vivo efficacy in N87 tumors in NSG mice; design: species or system mouse; conditions: N87 model; 6 and 10 mg/kg Q4D×4
Description: (§5) In order to determine if the resistance observed in cell culture was recapitulated in vivo, parental N87 cells and N87-TM-2 cells were expanded and injected into the flanks of Female NOD scid gamma (NSG) immunodeficient mice (NOD. Cg-Prkdcscid II2rgtm1Wjl/SzJ) obtained from The Jackson Laboratory (Bar Harbor, Me.). Mice were injected subcutaneously in the right flank with suspensions of either N87 or N87-TM cells (7.5×10^6 cells per injection, with 50% Matrigel). Mice were randomized into study groups when tumors reached ˜0.3 g (˜250 mm^3). […] Tumors were measured weekly and mass calculated as volume=(width×width×length)/2. Time-to-event analysis (tumor doubling) was conducted and significance evaluated by Log-rank (Mantel-Cox) test.

N87-TM tumors = assay: In vivo efficacy in T-DM1 resistant N87-TM tumors in NSG mice; design: species or system mouse; conditions: N87-TM-2 model; 6 and 10 mg/kg
Description: as §5

N87 xenografts = assay: T-DM1 resistance generated in vivo in N87 xenografts and follow-on treatment; design: species or system mouse; conditions: […] weekly
Description: Tumors were measured twice per week or weekly and mass calculated as volume=(width×width×length)/2.

JIMT-1 breast xenografts = conditions: even at 6 mg/kg, IV Q4d×4
Description: as §4
To generate xenografts, nude (Nu/Nu) female mice were implanted subcutaneously with 5×10^6 JIMT-1 cells (DSMZ# ACC-589) in 50% Matrigel (BD Biosciences). When the tumors reached a volume of 200 to 250 mm^3, the tumors were staged to ensure uniformity of the tumor mass among various treatment groups.

[5] = test system: 144580 breast patient-derived xenografts; conditions: all doses tested (1, 5, 3 and 6 mg/kg), Q4d×4
Description: as §4
The 144580 breast patient-derived xenografts were subcutaneously passaged in vivo as fragments from animal to animal in nude (Nu/Nu) female mice. When the tumors reached a volume of 150 to 300 mm^3, they were staged to ensure uniformity of the tumor size among various treatment groups.

[6] = test system: 37622 patient-derived xenografts; conditions: 10 mg/kg, Q4d×4
Description: as §4
The 37622 patient-derived xenografts were subcutaneously passaged in vivo as fragments from animal to animal in nude (Nu/Nu) female mice. When the tumors reached a volume of 150 to 300 mm^3, they were staged to ensure uniformity of the tumor size among various treatment groups.

[7] = read-out: sensitivity to free payload (IC50), N87-T-DM1_Ms2
[8] = read-out: sensitivity to free payload (IC50), N87-T-DM1_Ms7
[9] = read-out: sensitivity to free payload (IC50), N87-T-DM1_Ms17

Q: With COc1cc2cc(c1Cl)N(C)C(=O)C[C@H](OC(=O)[C@H](C)N(C)C(=O)CCS)[C@]1(C)O[C@H]1[C@H](C)[C@@H]1C[C@@](O)(NC(=O)O1)[C@H](OC)/C=C/C=C(\C)C2 [DM1] as the molecule, how does the “sensitivity of N87-TM cells” value [1] read?
A: retained sensitivity

Q: Which “sensitivity of N87-TM cells” value [1] does the source give for COc1cccc2c1C(=O)c1c(O)c3c(c(O)c1C2=O)C[C@@](O)(C(=O)CO)C[C@@H]3O[C@H]1C[C@H](N)[C@H](O)[C@H](C)O1 [Doxorubicin] here?
A: lack of cross-resistance

Q: What about the IC50 (N87 parental cells) of the same molecule?
A: 0.048 µM

Q: What about the IC50 [2, 7] of the same molecule?
A: 0.046 µM

Q: And the IC50 [2, 8]?
A: 0.079 µM

Q: What about the IC50 [2, 9] of the same molecule?
A: 0.034 µM

Q: What about the “sensitivity of T-DM1 resistant cells generated in vivo” value [2] of the same molecule?
A: No resistance

Q: What does the source list for CC[C@H](C)[C@@H]([C@@H](CC(=O)N1CCC[C@H]1[C@H](OC)[C@@H](C)C(=O)N[C@@H](Cc1ccccc1)c1nccs1)OC)N(C)C(=O)[C@@H](NC(=O)C(C)(C)N)C(C)C [compound 0101, 2-methylalanyl-N-[(3R,4S,5S)-3-methoxy-1-{(2S)-2-[(1R,2R)-1-methoxy-2-methyl-3-oxo-3-{[(1 S)-2-phenyl-1-(1,3-thiazol-2-yl)ethyl]amino}propyl]pyrrolidin-1-yl}-5-methyl-1-oxoheptan-4-yl]-N-methyl-L-valinamide] (H-[Aib]V[Dil][Dolaproine]-Doe)?
A: sensitivity of N87-TM cells [1]: retained sensitivity; IC50 (N87 parental cells): 0.0005 µM; IC50 [2, 7]: 0.0004 µM; IC50 [2, 8]: 0.0006 µM; IC50 [2, 9]: 0.00028 µM; sensitivity of T-DM1 resistant cells generated in vivo [2]: surprisingly sensitive; also recorded: not resistant

Q: For CC(=O)O[C@H]1C(=O)[C@@]2(C)[C@H]([C@H](OC(=O)c3ccccc3)[C@]3(O)C[C@H](OC(=O)[C@H](O)[C@@H](NC(=O)c4ccccc4)c4ccccc4)C(C)=C1C3(C)C)[C@]1(OC(C)=O)CO[C@@H]1C[C@@H]2O [paclitaxel], which “sensitivity of N87-TM cells” value [1] is on record?
A: lack of cross-resistance

Q: For EDB-L19-diS-DM1, which “Avg IC50” value [3] is on record?
A: 237 ng/mL

Q: Which “Avg IC50” value [3] does the source give for “EDB-L19-vc-0101: anti-EDB antibody L19 conventionally conjugated to vc-0101” here?
A: 15,346 ng/ml

Q: And the tumor response (PDX-NSX-11122; 1 mg/kg)?
A: delayed tumor growth

Q: What about the tumor response (PDX-NSX-11122; 3 mg/kg) of the same molecule?
A: complete regressions

Q: What about the tumor response (PDX-NSX-11122; 3 mg/kg and […]) of the same molecule?
A: tumor regression

Q: What about the “efficacy compared to isotype negative control ADCs and disulfide linker ADCs” value (PDX-NSX-11122; 1 and 3 mg/kg vs 10 mg/kg EDB-L19-diS-DM1, 5 mg/kg EDB-L19-diS-C2OCO-1569) of the same molecule?
A: greater efficacy

Q: And the tumor response (H-1975; 3 mg/kg)?
A: tumor regressions

Q: What about the tumor response (H-1975; 3 mg/kg, and as low as […]) of the same molecule?
A: tumor regression

Q: What about the tumor response (H-1975; 0.3, 1 and 3 mg/kg) of the same molecule?
A: tumor regression in a dose dependent manner

Q: What about the tumor response (H-1975; highest doses evaluated (3 mg/kg ADC1; 1 mg/kg ADC9)) of the same molecule?
A: tumor regression

Q: And the tumor response (HT29)?
A: tumor regression

Q: And the tumor response (PDX-PAX-13565)?
A: tumor regression in a dose dependent manner

Q: And the tumor response (PDX-PAX-12534)?
A: tumor regression in a dose dependent manner

Q: And the tumor response (Ramos)?
A: tumor regression

Q: T-DM1 was tested. Which tumor response (N87 gastric xenografts; 10 mg/kg) did it give?
A: complete regression of tumors

Q: What about the tumor response (N87 gastric xenografts; 1 and 3 mg/kg) of the same molecule?
A: delayed tumor growth

Q: What about the bystander effect [4] of the same molecule?
A: is not

Q: What about the “mice in which tumor doubling was prevented for at least 60 days” value (N87 tumors) of the same molecule?
A: > 50%

Q: And the “prevention of tumor doubling” value (N87-TM tumors)?
A: failed to do so

Q: What about the “mice responding to initial T-DM1 treatment” value (N87 xenografts) of the same molecule?
A: 17 out of 20

Q: And the tumor response (JIMT-1 breast xenografts)?
A: inactive

Q: What about the tumor response [5] of the same molecule?
A: ineffective

Q: And the tumor response [6]?
A: only provided some therapeutic benefit
